Assays:
[1] = system: CRE-directed transcription in MCF7 cells; assay: Transient transcription assay, somatostatin Δ-71 SS-CAT reporter; format: cell-based, human; settings: for effect on CAT activity / CRE-directed transcription: intact cells, transient transcription assay
Method: The CRE oligonucleotide successfully interfered with the CRE-directed transcription in intact cells. To analyze the effect of CRE oligonucleotide in CRE-directed transcription, a transient transcription assay was performed using a reporter plasmid, somatostatin Δ-71 (CPE-containing promoter)-CAT (chloramphenicol acetyltransferase) fusion gene (Montminy et al., Proc. Natl. Acad. Sci. 83, 6682 [1986]). MCF7 cells were transfected with 5 μg of somatostatin-chloramphenicol acetyltransferase fusion gene (Δ-71 SS-CAT plasmid) and 4 μg of CRE (i.e., the 24-mer described in Example 1) or control oligonucleotide by the use of transfection reagent N-[1-(2,3-Dioleoyloxy)propyl]-N,N,N-trimethylammonium methysulfate (DOTAP). After 5 hours, fresh medium was added, and the cells were harvested at 48 to 72 hours, then assayed for CAT activity. Some samples were also treated with forskolin (10 μM), an compound with adenyl cyclase activating properties (i.e., a compound that increases intracellular cAMP concentrations), for the final 24 hours. Cell lysates were prepared as described by Gorman (Gorman, High efficiency gene transfer into mammalian cells, DNA Cloning, Vol II, pp 143-165, IRL press, Oxford, England [1985]). Lysates (75 μg of protein) were incubated with 0.4 μCi of [^14 C]chloramphenicol, 0.53 mM acetyl-CoA, and 250 mM Tris-HCl, pH 7.8 for 90 minutes at 37° C. Under these conditions, CAT activity was linear with time. Reaction products were analyzed by thin-layer chromatography (Gorman, supra).

[2] = system: cancer cells: MCF7, LNCaP, A549, OVCAR 8, LS174T, KB, MCF7-TH, HCT-15; assay: Cancer cell growth in vitro (cell counts); format: cell-based, human
Method: (§1) Cells (0.25-1×10^5 /well) were plated in a 6-well plate containing the growth medium at 37° C. The 24-mer-CRE palindrome oligonucleotide (i.e., as described in Example 1) or two-base mismatched control oligonucleotide (i.e., as described in Example 1) was added, one day after seeding, to duplicate wells at varying concentrations. To increase the delivery of oligonucleotides into the cell, transfection reagent DOTAP was added along with the oligonucleotides. Saline treated (untreated), DOTAP treated (0 concentration), CRE, or CRE control oligonucleotide treated cells were harvested after 4 days of treatment, and cell numbers were counted in duplicate by a Coulter Counter. […] In this figure, lines with closed circles represent cells treated with the 24-mer-CRE palindrome oligonucleotide, while lines with open boxes represent cells treated with the control, mismatch oligonucleotide.

[3] = system: CRE-protein complex (CRE DNA-binding proteins such as 43 kDa CREB); assay: Mobility shift assay of CRE DNA-protein complex formation in nuclear extracts of treated cells; format: cell-based, human; settings: cells treated 150 nM for 2 days; MCF7, MCF10A and LNCaP; versus saline treated cells
Method: Cells were treated with saline (i.e., control cells), the CRE 24-mer (150 nM for 2 days), or a control oligonucleotide and nuclear extracts were prepared using the method of Dignam (Dignam et al., Nucleic Acid Res. 11, 1475 [1983]). The control oligonucleotide was 5'-[…]-3' (SEQ ID NO: 8), which is a copy of the CRE 24-mer with two mismatched bases included in each consensus sequence motif (i.e., it will not bind as well to transcription factors as will the consensus sequence oligonucleotide). Nuclear extracts were obtained from the cells and were analyzed by a mobility shift assay to compare the amount of CRE-protein bound complex between treated, untreated, and control samples. The DNA binding assay was performed by a method modified from that of Fried and Crothers (Fried and Crothers, Nucleic Acid Res. 9, 6506 [1981]). Briefly, nuclear extracts (10 μg protein) were pre-incubated with poly(dI-dC).cndot. poly (dI-dC) (1 μg), DTT (0.3 mM), and binding buffer (12 mM Tris pH 7.9, 2 mM MgCI2, 60 mM KCl, 0.12 mM EDTA, and 12% glycerol) with or without antiserum (2-4 μl) for 30 min at 4° C. ^32 P-labeled oligonucleotide (double-stranded CRE triplet, 5'-[…]-3'; SEQ ID NO:12) was then added and the reaction mixtures were incubated for 10 min at 37° C. The reaction mixtures were then separated on a 4% polyacrylamide gel at 200 V for 1.5 hours. The gel was dried and autoradiographed. […]

[4] = system: bcl-2 protein in MCF-10A cells; assay: Bcl-2 protein level by western blot; format: cell-based, human; settings: MCF-10A normal cells
Method: (§2) Bcl-2 protein levels were measured by standard western blotting techniques known in the art using Anti-bcl-2 antibody.

[5] = system: bcl-2 protein in MCF7 cells; assay: Bcl-2 protein level by western blot; format: cell-based, human; settings: 150 nM, 4 days
Method: as §2

[6] = system: HCT-15 human MDR colon carcinoma; assay: Tumor growth in vivo, HCT-15 xenograft; parameters: species or system athymic mice; settings: 5x/week, 4 weeks
Method: HCT-15 human MDR colon carcinoma tumor cells (2×10^6 cells) were inoculated subcutaneously into the left flank of athymic mice. The CRE or control oligonucleotide was injected intraperitoneally into mice at 0.01-0.1 mg/0.1 ml saline/mouse, daily, 5×/week for 4 weeks, when tumor size reached 30-50 mg ~10 days after cell inoculation. Tumor volumes were obtained from daily measurements of the longest and shortest diameters and calculated by the formula, 4/3πr^3 where r=(length+width)/4.

[7] = system: protein kinase A (PKA) in HS68 cells; assay: PKA activity of cell extracts by column chromatography; format: cell-based, human; settings: treated versus untreated HS68 cells
Method: (§3) Cultured ovarian cancer cells were treated with and without CRE decoy oligonucleotide using the methods of Example 1 below. Extracts were analyzed by column chromatography for PKA activity.

[8] = system: normal cells MCF-10A and L-132; assay: Normal cell growth in vitro (cell counts); format: cell-based, human; settings: MCF-10A and L-132, 4 days of treatment
Method: as §1

[9] = system: protein kinase A (PKA) in cultured ovarian cancer cells; assay: PKA activity of cell extracts by column chromatography; format: cell-based; settings: treated versus untreated ovarian cancer cells
Method: as §3

OVCAR8 cells = assay: Cell and nuclear morphology (Giemsa, Hoechst 33258), apoptosis; format: cell-based, human; settings: OVCAR 8
From the text: After staining, the whole cells were visualized under an inverted microscope at ×240. […] The nuclear morphology of cells was visualized by a fluorescence microscope (Olympus BH2) at ×2600.

[10] = Cellular uptake of 32P-labeled oligonucleotide; format: in vitro ADME, human
Method: To examine the efficacy of cellular incorporation of the CRE oligonucleotides, we incubated ^32 P-labeled samples of CRE-palindromeoligonucleotide and control oligonucleotide with MCF7 and MCF10A cells. Cell-associated radioactivity was quantified. Within 5 hrs, about 10% of the total input oligonucleotide accumulated in the cell and the incorporation continued to rise thereafter reaching 20-25% maximum levels at 24 hr of oligonucleotide incubation. The amounts and the rates of the incorporation of oligonucleotide were similar between MCF7 and MCF10A cells and between the CRE-decoy oligonucleotide and control oligonucleotide.

[11] = system: normal human mammary epithelial, lung epithelial and human newborn foreskin fibroblast (HS68) cell lines; assay: Growth of normal cell lines; format: cell-based
[12] = summary in description, concentration not given

Substance | effect on CAT activity / CRE-directed transcription [1] | growth inhibition ([2]; 150 nM, separate experiments) | growth inhibition [2, 12] | formation of the CRE-protein complex [3] | bcl-2 level [4] | bcl-2 level [5] | changes in cell morphology and apoptotic nuclei (OVCAR8 cells) | further results
5'-GCTGACGTCGGCCTGACGTCAGC-3' (chemistry not given here) [SEQ ID NO:3, non-palindromic hairpin forming CRE oligonucleotide] | interfered with CRE-directed transcription |  |  |  |  |  |  | 
5'-TGCCGTCATGCCGTCATGCCGTCA-3' (chemistry not given here) [24-mer CRE-hairpin sense oligonucleotide] | strongly inhibited | 70% | 70-80% |  |  |  |  | effect on CAT activity / CRE-directed transcription ([1]; listed as SEQ ID NO:10): strong inhibition
24-mer CRE-hairpin sense and antisense oligonucleotides in combination: two complementary hairpin-forming oligonucleotides combined, producing a cruciform structure (sense TGCCGTCATGCCGTCATGCCGTCA; antisense TGACGGCATGACGGCATGACGGCA; two hairpin-forming strands combined into cruciform structure, further chemistry not given here) |  | over 80% | over 80% |  |  |  |  | 
5'-TGACGTCA TGACGTCA TGACGTCA-3' (TGACGTCATGACGTCATGACGTCA; chemistry not given here) [24-mer CRE oligonucleotide, transcription factor decoy] |  |  |  | marked decrease | did not alter | markedly reduced | appearance of apoptotic nuclei | inhibition of the CRE-directed transcription ([1]; 4 μg oligonucleotide with 5 μg Δ-71 SS-CAT, DOTAP, versus Δ-71 CAT alone): greater than 90%; toxicity ([6]; 0.01 or 0.1 mg/mouse i.p. daily): without causing toxicity; inhibition of tumor growth ([6]; 0.01 or 0.1 mg/mouse i.p. daily, versus saline treated tumors): greater than 85%; PKA activity [7]: did not show any differences; IC50 ([2]; 4 days of treatment, with DOTAP, read-out: IC50, growth inhibition of cancer cells): 100 to 150 nM; growth of normal cells [8]: unaffected; PKA activity peaks (Type-1 and Type-2) [9]: no peaks; maximum level of oligonucleotide incorporation ([10]; 24 hr of incubation): 20-25%; total input oligonucleotide accumulated in the cell ([10]; within 5 hrs): about 10%; growth of normal cell lines [11]: not affected
5'-TGACGGCATGACGGCATGACGGCA-3' (chemistry not given here) |  | 30% | 30% |  |  |  |  | 
5'-TGTGGTCATGTGGTCATGTGGTCA-3' (DNA, backbone and methylation of C not given here) [reference compound] | no inhibitory effect |  |  | same or similar intensity band | no effect | no effect | not observed | tumor growth inhibitory effect ([6]; i.p. daily): no growth inhibitory effect; growth inhibitory effect ([2]; 4 days of treatment, with DOTAP): no growth inhibitory effect
